The test system of series [1] is Plutella xylostella (Diamond Back Moth). Put plainly: Example B13 Plutella xylostella mortality and growth inhibition. Type of series: in vivo. To be noted: 120 h, application rate of 200 ppm, L2 larvae on treated artificial diet, 5 days after infestation, read-out: effect in at least one of the two categories (mortality or growth inhibition). The protocol:
Plutella xylostella (Diamond Back Moth)
24-well microtiter plates with artificial diet were treated with aqueous test solutions prepared from 10,000 ppm DMSO stock solutions by pipetting. After drying, the plates were infested with L2 larvae (10 to 15 per well). The samples were assessed for mortality and growth inhibition in comparison to untreated samples 5 days after infestation.

Series [2] has as its system Frankliniella occidentalis (Western Flower Thrips). Description: Example B8 Frankliniella occidentalis feeding/contact activity. The series is classed as in vivo. To be noted: foliar, 168 h, application rate of 200 ppm, mixed-age population on sprayed sunflower leaf discs, 7 days after infestation. The protocol: Frankliniella occidentalis (Western Flower Thrips): Feeding/Contact Activity
Sunflower leaf discs were placed on agar in 24-well microtiter plates and sprayed with aqueous test solutions prepared from 10,000 DMSO stock solutions. After drying the leaf discs were infested with a Frankliniella population of mixed ages. The samples were assessed for mortality 7 days after infestation.

The test system of series [3] is Diabrotica balteata (Corn Root Worm). Put plainly: Example B4 Diabrotica balteata mortality. To be noted: 96 h, application rate of 200 ppm, L2 larvae on sprayed maize sprouts, 4 days after infestation. Type of series: in vivo. As for the experimental part: (§1) Diabrotica Balteata (Corn Root Worm):
Maize sprouts placed onto an agar layer in 24-well microtiter plates were treated with aqueous test solutions prepared from 10,000 ppm DMSO stock solutions by spraying. After drying, the plates were infested with L2 larvae (6 to 10 per well). The samples were assessed for mortality 4 days after infestation.

Series [4] concerns Plutella xylostella (Diamond Back Moth). Put plainly: Example B12 Plutella xylostella feeding/contact activity. The series is classed as in vivo. The settings on record: 120 h, application rate of 200 ppm, L2 larvae on treated artificial diet, 5 days after infestation. The protocol:
Plutella xylostella (Diamond Back Moth): Feeding/Contact Activity
24-well microtiter plates with artificial diet were treated with aqueous test solutions prepared from 10,000 ppm DMSO stock solutions by pipetting. After drying, the plates were infested with L2 larvae (10 to 15 per well). The samples were assessed for mortality 5 days after infestation.

Series [5] has as its system Myzus persicae (Green Peach Aphid). Description: Example B9 Myzus persicae feeding/contact activity. Type of series: in vivo. To be noted: foliar, 144 h, application rate of 200 ppm, mixed-age aphids on sprayed sunflower leaf discs, 6 days after infestation. As for the experimental part:
Myzus persicae (Green Peach Aphid): Feeding/Contact Activity
Sunflower leaf discs were placed onto agar in a 24-well microtiter plate and sprayed with aqueous test solutions prepared from 10,000 ppm DMSO stock solutions. After drying, the leaf discs were infested with an aphid population of mixed ages. The samples were assessed for mortality 6 days after infestation.

The subject of series [6] is Euschistus heros (Neotropical Brown Stink Bug). Put plainly: Example B7 Euschistus heros feeding/contact activity. The series is classed as in vivo. The settings on record: 120 h, application rate of 200 ppm, N2 nymphs on sprayed soybean leaves, 5 days after infestation. As for the experimental part:
Euschistus heros (Neotropical Brown Stink Bug): Feeding/Contact Activity
Soybean leaves on agar in 24-well microtiter plates were sprayed with aqueous test solutions prepared from 10,000 ppm DMSO stock solutions. After drying the leaves were infested with N2 nymphs. The samples were assessed for mortality 5 days after infestation.

Series [7] relates to Diabrotica balteata (Corn Root Worm). Description: Example B2 Diabrotica balteata mortality and growth inhibition. The series is classed as in vivo. The settings on record: 96 h, application rate of 200 ppm, L2 larvae on sprayed maize sprouts, 4 days after infestation, read-out: effect in at least one of the two categories (mortality or growth inhibition). As for the experimental part: Diabrotica balteata (Corn Root Worm)
Maize sprouts placed onto an agar layer in 24-well microtiter plates were treated with aqueous test solutions prepared from 10,000 ppm DMSO stock solutions by spraying. After drying, the plates were infested with L2 larvae (6 to 10 per well). The samples were assessed for mortality and growth inhibition in comparison to untreated samples 4 days after infestation.

The subject of series [8] is Spodoptera littoralis (Egyptian Cotton Leaf Worm). Description: Example B15 Spodoptera littoralis growth inhibition activity. The series is classed as in vivo. The settings on record: foliar, 72 h, application rate of 200 ppm, L1 larvae on sprayed cotton leaf discs, 3 days after infestation, read-out: control (growth inhibition). The protocol: Spodoptera littoralis (Egyptian Cotton Leaf Worm): Growth Inhibition Activity
Cotton leaf discs were placed onto agar in 24-well microtiter plates and sprayed with aqueous test solutions prepared from 10,000 ppm DMSO stock solutions. After drying the leaf discs were infested with five L1 larvae. The samples were assessed for growth inhibition in comparison to untreated samples 3 days after infestation. Control of Spodoptera littoralis by a test sample is given when the growth inhibition is higher than the untreated sample.

The test system of series [9] is Euschistus heros (Neotropical Brown Stink Bug). Description: Example B5 Euschistus heros mortality and growth inhibition. The series is classed as in vivo. The settings on record: 120 h, application rate of 200 ppm, N2 nymphs on sprayed soybean leaves, 5 days after infestation, read-out: effect in at least one of the two categories (mortality or growth inhibition). As for the experimental part:
Euschistus heros (Neotropical Brown Stink Bug)
Soybean leaves on agar in 24-well microtiter plates were sprayed with aqueous test solutions prepared from 10,000 ppm DMSO stock solutions. After drying the leaves were infested with N2 nymphs. The samples were assessed for mortality and growth inhibition in comparison to untreated samples 5 days after infestation.

Series [10] concerns Bemisia tabaci (Cotton White Fly). Description: Example B1 Bemisia tabaci feeding/contact activity. The series is classed as in vivo. To be noted: foliar, 144 h, application rate of 200 ppm, adult white flies on sprayed cotton leaf discs, 6 days after incubation. The protocol:
Bemisia tabaci (Cotton White Fly): Feeding/Contact Activity
Cotton leaf discs were placed on agar in 24-well microtiter plates and sprayed with aqueous test solutions prepared from 10,000 ppm DMSO stock solutions. After drying the leaf discs were infested with adult white flies. The samples were checked for mortality 6 days after incubation.

Series [11] has as its system Spodoptera littoralis (Egyptian Cotton Leaf Worm). Description: Example B14 Spodoptera littoralis anti-feeding activity. The settings on record: foliar, 72 h, application rate of 200 ppm, L1 larvae on sprayed cotton leaf discs, 3 days after infestation, read-out: control (anti-feeding effect). The series is classed as in vivo. The protocol: Spodoptera littoralis (Egyptian Cotton Leaf Worm): Anti-Feeding Activity
Cotton leaf discs were placed onto agar in 24-well microtiter plates and sprayed with aqueous test solutions prepared from 10,000 ppm DMSO stock solutions. After drying the leaf discs were infested with five L1 larvae. The samples were assessed for anti-feeding effect in comparison to untreated samples 3 days after infestation. Control of Spodoptera littoralis by a test sample is given when the anti-feedant effect is higher than the untreated sample.

Series [12] has the same test system. Put plainly: Example B16 Spodoptera littoralis feeding/contact activity. Type of series: in vivo. To be noted: foliar, 72 h, application rate of 200 ppm, L1 larvae on sprayed cotton leaf discs, 3 days after infestation. The protocol:
Spodoptera littoralis (Egyptian Cotton Leaf Worm): Feeding/Contact Activity
Cotton leaf discs were placed onto agar in 24-well microtiter plates and sprayed with aqueous test solutions prepared from 10,000 ppm DMSO stock solutions. After drying the leaf discs were infested with five L1 larvae. The samples were assessed for mortality 3 days after infestation.

Series [13] deals with Plutella xylostella (Diamond Back Moth). Put plainly: Example B11 Plutella xylostella growth inhibition activity. The series is classed as in vivo. The settings on record: 120 h, application rate of 200 ppm, L2 larvae on treated artificial diet, 5 days after infestation. The protocol:
Plutella xylostella (Diamond Back Moth): Growth Inhibition Activity
24-well microtiter plates with artificial diet were treated with aqueous test solutions prepared from 10,000 ppm DMSO stock solutions by pipetting. After drying, the plates were infested with L2 larvae (10 to 15 per well). The samples were assessed for growth inhibition in comparison to untreated samples 5 days after infestation. Control of Plutella xylostella by a test sample is given when the growth inhibition is higher than the untreated sample.

For series [14], the system named is Myzus persicae (Green Peach Aphid). Put plainly: Example B10 Myzus persicae systemic activity. The series is classed as in vivo. The settings on record: 144 h, test rate of 24 ppm, roots of infested pea seedlings in test solution, 6 days. As for the experimental part:
Myzus persicae (Green Peach Aphid). Systemic Activity
Roots of pea seedlings infested with an aphid population of mixed ages were placed directly into aqueous test solutions prepared from 10,000 DMSO stock solutions. The samples were assessed for mortality 6 days after placing seedlings into test solutions.

Series [15] deals with Diabrotica balteata (Corn Root Worm). Put plainly: Example B3 Diabrotica balteata growth inhibition. The settings on record: 96 h, application rate of 200 ppm, L2 larvae on sprayed maize sprouts, 4 days after infestation. The series is classed as in vivo. As for the experimental part:
as §1
Maize sprouts placed onto an agar layer in 24-well microtiter plates were treated with aqueous test solutions prepared from 10,000 ppm DMSO stock solutions by spraying. After drying, the plates were infested with L2 larvae (6 to 10 per well). The samples were assessed for growth inhibition in comparison to untreated samples 4 days after infestation. Control of Diabrotica balteata by a test sample is given when the growth inhibition is higher than in the untreated sample.

The structures appear in SMILES notation.

By mortality is commonly meant the percentage killed. High values mean fewer survivors, low ones more survivors. By inhibition is commonly meant the relative decrease from the control value, in per cent. One may read the melting point as the temperature of the solid-liquid transition.

With `CCS(=O)(=O)c1cc(OC(C)(C)C#N)cnc1-c1cn2cnc(SC(F)(F)F)cc2n1` [Compound P17, 2-[[5-ethylsulfonyl-6-[7-(trifluoromethylsulfanyl)imidazo[1,2-c]pyrimidin-2-yl]-3-pyridyl]oxy]-2-methyl-propanenitrile], the percent effect (mortality or growth inhibition) at 200 ppm in series [1], in series [7] and in series [9] was not below 80% in each case. Also, the mortality at 200 ppm in series [2], in [3], in series [4], in [5], in series [6] and in series [10] was not below 80% throughout. This molecule also registered a mortality at 200 ppm in [12] not below 80%. The inhibition at 200 ppm in series [8] was not below 80%. Further, the pest or weed control at 200 ppm in series [11] was not below 80%.
Regarding `CCS(=O)(=O)c1cc(O)cnc1-c1cn2cnc(C(F)(F)F)cc2n1` [Compound P10, 5-ethylsulfonyl-6-[7-(trifluoromethyl)imidazo[1,2-c]pyrimidin-2-yl]pyridin-3-ol], the melting point lay within 229 to 232 °C.
In turn, `CCS(=O)(=O)c1cc(OCC(F)(F)F)cnc1-c1nc2cc(C(F)(F)F)ncn2c1Br` [Compound P25, 3-bromo-2-[3-ethylsulfonyl-5-(2,2,2-trifluoroethoxy)-2-pyridyl]-7-(trifluoromethyl)imidazo[1,2-c]pyrimidine] showed a melting point of 86 to 88 °C.
`CCS(=O)(=O)c1cc(OCCS(C)(=O)=O)cnc1-c1cn2cnc(C(F)(F)F)cc2n1` [Compound P24, 2-[3-ethylsulfonyl-5-(2-methylsulfonylethoxy)-2-pyridyl]-7-(trifluoromethyl)imidazo[1,2-c]pyrimidine] returned a melting point of 209 to 210 °C.
Take `CCS(=N)(=O)c1cc(OC(C)(C)C#N)cnc1-c1cn2cnc(C(F)(F)C(F)(F)F)cc2n1` (stereo not drawn) [Compound P19, 2-[[5-(ethylsulfonimidoyl)-6-[7-(1,1,2,2,2-pentafluoroethyl)imidazo[1,2-c]pyrimidin-2-yl]-3-pyridyl]oxy]-2-methyl-propanenitrile]: the percent effect (mortality or growth inhibition) at 200 ppm in series [1], in series [7] and in series [9] was not below 80% each time. Besides, the inhibition at 200 ppm in series [13] and in series [8] was not below 80% in each case. For the same molecule, the mortality at 200 ppm in [2], in series [3], in series [4], in series [5], in series [6] and in series [10] was not below 80% throughout. In series [12], this molecule came in with a mortality at 200 ppm not below 80%. The molecule further had a mortality at 24 ppm in series [14] not below 80%. For the same molecule, the pest or weed control at 200 ppm in series [11] is not below 80%.
For `CCS(=O)(=O)c1cc(O)cnc1-c1nc2cc(C(F)(F)F)ncn2c1Br` [Compound P27, 6-[3-bromo-7-(trifluoromethyl)imidazo[1,2-c]pyrimidin-2-yl]-5-ethylsulfonyl-pyridin-3-ol], the melting point was 230 to 234 °C.
The same measure, in the same setting: the value for `CCS(=O)(=O)c1cc(OCS(C)(=O)=O)cnc1-c1cn2cnc(C(F)(F)C(F)(F)F)cc2n1` [Compound P26, 2-[3-ethylsulfonyl-5-(methylsulfonylmethoxy)-2-pyridyl]-7-(1,1,2,2,2-pentafluoroethyl)imidazo[1,2-c]pyrimidine] was 248 to 250 °C.
As for `CCS(=N)(=O)c1cc(OC(C)(C)C#N)cnc1-c1cn2cnc(C(F)(F)F)cc2n1` (stereo not drawn) [Compound P20, 2-[[5-(ethylsulfonimidoyl)-6-[7-(trifluoromethyl)imidazo[1,2-c]pyrimidin-2-yl]-3-pyridyl]oxy]-2-methyl-propanenitrile], the percent effect (mortality or growth inhibition) at 200 ppm in series [1] and in series [7] was not below 80% each time. Further, the inhibition at 200 ppm in [13] and in [15] was not below 80% throughout. In addition, the mortality at 24 ppm in series [14] is not below 80%. The mortality at 200 ppm in [3], in series [4], in series [5], in series [10] and in series [12] was not below 80% in each case. Moreover, in series [11], the pest or weed control at 200 ppm was not below 80%.

The record behind these values is US10945435B2, “Imidazopyrimidine derivatives with sulfur containing phenyl and pyridyl substituents” (SYNGENTA PARTICIPATIONS AG, priority 2017, dated 2021).
